What was measured:
Experiment in all cases: relative viability (nuclei count vs DMSO), 5 days (fraction); higher = more cells survive
[1] = compound: CC1=C(C=C(C=C1)NC(=O)C2=CC(=CC=C2)C(C)(C)C#N)NC3=CC4=C(C=C3)N=CN(C4=O)C [AZ628] + CS(=O)(=O)CCNCc1ccc(-c2ccc3ncnc(Nc4ccc(OCc5cccc(F)c5)c(Cl)c4)c3c2)o1 [Lapatinib] (partner 2 µM)
In short: (§1)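 One day after seeding in 1536-well plates, lung cancer cell lines were dosed by pin tool. Dosing was either single-drug or a fixed anchor-drug dose plus five library-drug doses (not always all listed) in √10 steps. After 5 days, nuclei were stained in one fix-and-stain step and counted on 4× images, and relative viability is the nuclei count of treated wells over that of vehicle wells, given as the median of duplicate plates.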

[2] = compound: CC1=C(C=C(C=C1)NC(=O)C2=CC(=CC=C2)C(C)(C)C#N)NC3=CC4=C(C=C3)N=CN(C4=O)C [AZ628] + CC(=O)Nc1cccc(-n2c(=O)n(C3CC3)c(=O)c3c(Nc4ccc(I)cc4F)n(C)c(=O)c(C)c32)c1 [Trametinib] (partner 0.02 µM)
In short: as §1

[3] = compound: CC1=C(C=C(C=C1)NC(=O)C2=CC(=CC=C2)C(C)(C)C#N)NC3=CC4=C(C=C3)N=CN(C4=O)C [AZ628] + Cc1nc(Nc2ncc(C(=O)Nc3c(C)cccc3Cl)s2)cc(N2CCN(CCO)CC2)n1 [Dasatinib] (partner 0.075 µM)
In short: as §1

[4] = compound: C1CC2=C(C1)C=C(C=C2)OC3=NC(=C4C(=N3)N(C=N4)CC5=CC=C(C=C5)C6=CC=CC=C6)N[C@@H](CC7=CC=CC=C7)CO [QS11] + CS(=O)(=O)CCNCc1ccc(-c2ccc3ncnc(Nc4ccc(OCc5cccc(F)c5)c(Cl)c4)c3c2)o1 [Lapatinib] (partner 2 µM)
In short: as §1

| Cell Line | relative viability ([1]; first compound 0.08 µM) | relative viability ([1]; first compound 0.253 µM) | relative viability ([1]; first compound 0.8 µM) | relative viability ([1]; first compound 2.53 µM) | relative viability ([1]; first compound 8 µM) | relative viability ([2]; first compound 0.08 µM) | relative viability ([2]; first compound 0.253 µM) | relative viability ([2]; first compound 0.8 µM) | relative viability ([2]; first compound 2.53 µM) | relative viability ([2]; first compound 8 µM) | relative viability ([3]; first compound 0.08 µM) | relative viability ([3]; first compound 0.253 µM) | relative viability ([3]; first compound 0.8 µM) | relative viability ([3]; first compound 2.53 µM) | relative viability ([3]; first compound 8 µM) | relative viability ([4]; first compound 0.08 µM) | relative viability ([4]; first compound 0.253 µM) | relative viability ([4]; first compound 0.8 µM) | relative viability ([4]; first compound 2.53 µM) | relative viability ([4]; first compound 8 µM) |
| --- | --- | --- | --- | --- | --- | --- | --- | --- | --- | --- | --- | --- | --- | --- | --- | --- | --- | --- | --- | --- |
| NCI-H358 | 0.446 | 0.422 | 0.404 | 0.432 | 0.339 | 0.113 | 0.112 | 0.104 | 0.102 | 0.134 | 0.184 | 0.124 | 0.136 | 0.161 | 0.1 | 0.41 | 0.436 | 0.482 | 0.703 | 0.785 |
| NCI-H460 | 1.08 | 0.868 | 0.853 | 0.87 | 0.559 | 0.161 | 0.0829 | 0.0419 | 0.0397 | 0.0115 | 0.569 | 0.428 | 0.362 | 0.407 | 0.132 | 1.4 | 1.14 | 0.567 | 0.686 | 0.24 |
| NCI-H520 | 0.901 | 0.857 | 0.743 | 0.778 | 0.766 | 0.469 | 0.459 | 0.273 | 0.23 | 0.16 | 0.254 | 0.189 | 0.325 | 0.18 | 0.215 | – | 1.05 | 0.863 | 0.99 | 1.13 |
| NCI-H596 | 1.03 | 1.08 | 1.11 | 1.08 | 1.27 | 0.779 | 0.711 | 0.622 | 0.786 | 0.756 | 0.693 | 0.618 | 0.573 | 0.565 | 0.471 | 1 | 1.02 | 1.02 | 1.03 | 1.05 |
| NCI-H647 | 1.25 | 1.02 | 0.982 | 1.19 | 0.894 | 0.277 | 0.233 | 0.22 | 0.22 | 0.22 | 0.193 | 0.173 | 0.217 | 0.14 | 0.15 | 0.939 | 1.12 | 0.916 | 1.1 | 0.711 |
| NCI-H650 | 1.2 | 0.778 | 1.08 | 1.2 | 0.898 | 0.568 | 0.393 | 0.357 | 0.365 | 0.282 | 0.529 | 0.487 | 0.463 | 0.558 | 0.434 | 0.83 | 0.907 | 1.13 | 0.801 | 0.667 |
| NCI-H661 | 0.401 | 0.502 | 0.435 | 0.498 | 0.464 | 0.509 | 0.426 | 0.413 | 0.377 | 0.535 | 0.87 | 0.644 | 0.629 | 0.666 | 0.659 | 0.474 | 0.45 | 0.632 | 0.354 | 0.463 |
| NCI-H727 | 0.484 | 0.472 | 0.415 | 0.326 | 0.296 | 0.338 | – | – | 0.385 | 0.357 | 0.318 | 0.3 | 0.306 | 0.23 | 0.264 | 1 | 0.714 | 0.892 | 0.665 | 0.639 |
| NCI-H838 | 1.05 | 0.992 | 0.572 | 0.956 | 1.04 | 0.491 | 0.466 | 0.486 | 0.477 | 0.556 | 0.287 | 0.291 | 0.297 | 0.274 | 0.284 | 0.944 | 0.918 | 0.68 | 0.899 | 0.904 |
| NCI-H1355 | 0.974 | 0.934 | 0.947 | 0.944 | 0.862 | 0.384 | 0.303 | 0.28 | 0.292 | 0.286 | 0.723 | 0.663 | 0.611 | 0.626 | 0.458 | 1.08 | 0.792 | 0.688 | 0.997 | 1.07 |
| NCI-H1395 | 1.04 | 1 | 0.942 | 0.933 | 0.916 | 0.954 | 0.739 | 0.794 | 0.732 | 0.776 | 0.411 | 0.426 | 0.416 | 0.423 | 0.362 | – | 0.98 | 0.992 | 1.14 | 0.977 |
| NCI-H1437 | 0.858 | 0.735 | 0.738 | 0.94 | 0.97 | 0.494 | 0.549 | 0.471 | 0.557 | 0.566 | 0.415 | 0.242 | 0.275 | 0.43 | 0.39 | 0.832 | 0.846 | 0.581 | 0.704 | 0.598 |
| NCI-H1650 | 1.24 | 0.795 | 0.79 | 0.498 | 0.68 | 0.502 | 0.541 | 0.329 | 0.327 | 0.497 | 0.319 | 0.366 | 0.318 | 0.296 | 0.249 | 0.746 | 0.643 | 0.673 | 0.731 | 0.708 |
| NCI-H1651 | 0.985 | 0.86 | 0.865 | 0.753 | 1.11 | 0.848 | 0.83 | 0.858 | 0.826 | 0.77 | 0.517 | 0.384 | 0.408 | 0.392 | 0.535 | 0.941 | 0.872 | 0.828 | 1.01 | 0.76 |
| NCI-H1666 | 0.759 | 0.58 | 0.521 | 0.477 | 0.539 | 0.758 | 0.697 | 0.841 | 0.6 | 0.777 | 0.812 | 0.733 | 0.669 | 0.665 | 0.668 | 0.607 | 0.398 | 0.542 | 0.578 | 0.42 |
| NCI-H1734 | 1.08 | 1.07 | 0.896 | 0.908 | 0.699 | 0.42 | 0.386 | 0.313 | 0.344 | 0.301 | 0.424 | 0.552 | 0.525 | 0.511 | 0.349 | 1.07 | 0.968 | 0.921 | 1.01 | 0.898 |

— the supplement of paper PMC10307832
